# Test results reported in patent US20240308992A1 (Biopolar Youtang(Guangdong) Pharmaceutical Co., Ltd., priority 2021, published 2024).
# Target: T1, Drak2 (Homo sapiens, UniProt O94768)
# T1 sequence (O94768 1-372): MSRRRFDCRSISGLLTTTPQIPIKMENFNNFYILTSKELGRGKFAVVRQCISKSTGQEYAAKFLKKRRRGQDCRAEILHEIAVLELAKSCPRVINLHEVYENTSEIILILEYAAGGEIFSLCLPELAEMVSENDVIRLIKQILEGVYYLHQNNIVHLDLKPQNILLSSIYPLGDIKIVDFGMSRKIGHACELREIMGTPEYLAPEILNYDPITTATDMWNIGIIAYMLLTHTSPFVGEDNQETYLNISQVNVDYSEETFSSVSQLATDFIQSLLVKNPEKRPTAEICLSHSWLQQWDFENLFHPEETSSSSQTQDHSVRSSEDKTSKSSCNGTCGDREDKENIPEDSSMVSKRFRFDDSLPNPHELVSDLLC
# Assay: Drak2 activity test, ADP-Glo kinase assay (Promega)
# Assay type: biochemical
# Details: inhibition of Drak2 kinase activity, 2 h room temperature, activity range classes, read-out: IC50_Drak2
row,SMILES,IC50 [nM]
1,"CCCCC(=O)Nc1csc(-c2cncc(-c3ccc(C(=O)Nc4nnco4)c(OC)c3)n2)c1 [Example B23, 2-methoxy-4-(6-(4-pentanamidothiophen-2-yl)pyrazin-2-yl)-N-(1,3,4-oxadiazol-2-yl)benzamide]",11 to 100
2,"CCCCC(=O)Nc1csc(-c2cncc(-c3ccc(C(=O)N4CCOCC4)c(OC)c3)n2)c1 [Example B29, N-(5-(6-(3-methoxy-4-(morpholine-4-carbonyl)phenyl)pyrazin-2-yl)thiophen-3-yl)pentanamide]",11 to 100
3,"CCCCC(=O)Nc1csc(-c2cncc(-c3ccc(CN4CCOCC4)c(OC)c3)n2)c1 [Example B30, N-(5-(6-(3-methoxy-4-(morpholinomethyl)phenyl)pyrazin-2-yl)thiophen-3-yl)pentanamide]",101 to 1000
4,"COc1cc(-c2cncc(-c3cc(NC(=O)CC4CC4)cs3)n2)ccc1C(=O)N1CCOCC1 [Example B31, 2-cyclopropyl-N-(5-(6-(3-methoxy-4-(morpholine-4-carbonyl)phenyl)pyrazin-2-yl)thiophen-3-yl)acetamide]",11 to 100
5,"COc1cc(-c2cncc(-c3cc(NC(=O)CC4CCCC4)cs3)n2)ccc1C(=O)N1CCOCC1 [Example B33, 2-cyclopentyl-N-(5-(6-(3-methoxy-4-(morpholine-4-carbonyl)phenyl)pyrazin-2-yl)thiophen-3-yl)acetamide]",11 to 100
6,"COc1cc(-c2cncc(-c3cc(NC(=O)CC4CCCC4)cs3)n2)ccc1CN1CCOCC1 [Example B36, 2-cyclopentyl-N-(5-(6-(3-methoxy-4-(morpholinomethyl)phenyl)pyrazin-2-yl)thiophen-3-yl)acetamide]",101 to 1000
7,"CCCCC(=O)Nc1csc(-c2cncc(-c3ccc(C(=O)N4CCN(C)CC4)c(OC)c3)n2)c1 [Example B37, N-(5-(6-(3-methoxy-4-(4-methylpiperazine-1-carbonyl)phenyl)pyrazin-2-yl)thiophen-3-yl)pentanamide]",11 to 100
8,"COc1cc(-c2cncc(-c3cc(NC(=O)CC4CCC4)cs3)n2)ccc1C(=O)N1CCN(C)CC1 [Example B39, 2-cyclobutyl-N-(5-(6-(3-methoxy-4-(4-methylpiperazine-1-carbonyl)phenyl)pyrazin-2-yl)thiophen-3-yl)acetamide]",11 to 100
9,"COc1cc(-c2cncc(-c3cc(NC(=O)CC4CC4)cs3)n2)ccc1C(=O)Nc1cn(C)nc1OC [Example B42, 4-(6-(4-(2-cyclopropylacetamido)thiophen-2-yl)pyrazin-2-yl)-2-methoxy-N-(3-methoxy-1-methyl-1H-pyrazol-4-yl)benzamide]",101 to 1000
10,"COc1cc(-c2cncc(-c3cc(NC(=O)CC4CC4)cs3)n2)ccc1C(=O)Nc1nnco1 [Example B46, 4-(6-(4-(2-cyclopropylacetamido)thiophen-2-yl)pyrazin-2-yl)-2-methoxy-N-(1,3,4-oxadiazol-2-yl)benzamide]",11 to 100
11,"COc1cc(-c2cncc(-c3cc(NC(=O)CC4CC4)cs3)n2)ccc1C(=O)N1CCC(OC)CC1 [Example B48, 2-cyclopropyl-N-(5-(6-(3-methoxy-4-(4-methoxypiperidine-1-carbonyl)phenyl)pyrazin-2-yl)thiophen-3-yl)acetamide]",11 to 100
12,"COc1cc(-c2cncc(-c3cc(NC(=O)CC4CCC4)cs3)n2)ccc1C(=O)N1CCC(OC)CC1 [Example B49, 2-cyclobutyl-N-(5-(6-(3-methoxy-4-(4-methoxypiperidine-1-carbonyl)phenyl)pyrazin-2-yl)thiophen-3-yl)acetamide]",11 to 100
13,"COc1cc(-c2cncc(-c3cc(NC(=O)CC4CC4)cs3)n2)ccc1C(=O)N1CCN(C2CCN(C)CC2)CC1 [Example B50, 2-cyclopropyl-N-(5-(6-(3-methoxy-4-(4-(1-methylpiperidin-4-yl)piperazine-1-carbonyl)phenyl)pyrazin-2-yl)thiophen-3-yl)acetamide]",11 to 100
14,"COc1cc(-c2cncc(-c3cc(NC(=O)CC4CCCC4)cs3)n2)ccc1C(=O)N1CCN(C2CCN(C)CC2)CC1 [Example B52, 2-cyclopentyl-N-(5-(6-(3-methoxy-4-(4-(1-methylpiperidin-4-yl)piperazine-1-carbonyl)phenyl)pyrazin-2-yl)thiophen-3-yl)acetamide]",11 to 100
15,"CCCCC(=O)Nc1csc(-c2cncc(-c3ccc(C(=O)N4CCC(OC)CC4)c(OC)c3)n2)c1 [Example B53, N-(5-(6-(3-methoxy-4-(4-methoxypiperidine-1-carbonyl)phenyl)pyrazin-2-yl)thiophen-3-yl)pentanamide]",11 to 100

# The remaining lines, values ahead:
row,IC50 [nM],SMILES
1,101 to 1000,"CCCCC(=O)Nc1csc(-c2cncc(-c3ccc(C(=O)Nc4cn(C)c(C(=O)OC)n4)c(OC)c3)n2)c1 [Example B22, methyl 4-(2-methoxy-4-(6-(4-pentanamidothiophen-2-yl)pyrazin-2-yl)benzamido)-1-methyl-1H-imidazole-2-carboxylate]"
2,1000 to 10000,"CCCCC(=O)Nc1csc(-c2cncc(-c3ccc(C(=O)Nc4nncs4)c(OC)c3)n2)c1 [Example B24, 2-methoxy-4-(6-(4-pentanamidothiophen-2-yl)pyrazin-2-yl)-N-(1,3,4-thiadiazol-2-yl)benzamide]"
3,11 to 100,"COc1cc(-c2cncc(-c3cc(NC(=O)CC4CC4)cs3)n2)ccc1C(=O)Nc1nnnn1C [Example B25, 2-methoxy-4-(6-(4-(2-cyclopropylacetamido)thiophen-2-yl)pyrazin-2-yl)-N-(1-methyl-1H-tetrazol-5-yl)benzamide]"
4,11 to 100,"COc1cc(-c2cncc(-c3cc(NC(=O)CC4CCC4)cs3)n2)ccc1C(=O)Nc1nnnn1C [Example B26, 2-methoxy-4-(6-(4-(2-cyclobutylacetamido)thiophen-2-yl)pyrazin-2-yl)-N-(1-methyl-1H-tetrazol-5-yl)benzamide]"
5,11 to 100,"COc1cc(-c2cncc(-c3cc(NC(=O)CC4CCCC4)cs3)n2)ccc1C(=O)Nc1nnnn1C [Example B27, 2-methoxy-4-(6-(4-(2-cyclopentylacetamido)thiophen-2-yl)pyrazin-2-yl)-N-(1-methyl-1H-tetrazol-5-yl)benzamide]"
6,101 to 1000,"COc1cc(-c2cncc(-c3cc(NC(=O)CC4CCCCC4)cs3)n2)ccc1C(=O)Nc1nnnn1C [Example B28, 2-methoxy-4-(6-(4-(2-cyclohexylacetamido)thiophen-2-yl)pyrazin-2-yl)-N-(1-methyl-1H-tetrazol-5-yl)benzamide]"
7,11 to 100,"COc1cc(-c2cncc(-c3cc(NC(=O)CC4CCC4)cs3)n2)ccc1C(=O)N1CCOCC1 [Example B32, 2-cyclobutyl-N-(5-(6-(3-methoxy-4-(morpholine-4-carbonyl)phenyl)pyrazin-2-yl)thiophen-3-yl)acetamide]"
8,101 to 1000,"COc1cc(-c2cncc(-c3cc(NC(=O)CC4CC4)cs3)n2)ccc1CN1CCOCC1 [Example B34, 2-cyclopropyl-N-(5-(6-(3-methoxy-4-(morpholinomethyl)phenyl)pyrazin-2-yl)thiophen-3-yl)acetamide]"
9,101 to 1000,"COc1cc(-c2cncc(-c3cc(NC(=O)CC4CCC4)cs3)n2)ccc1CN1CCOCC1 [Example B35, 2-cyclobutyl-N-(5-(6-(3-methoxy-4-(morpholinomethyl)phenyl)pyrazin-2-yl)thiophen-3-yl)acetamide]"
10,11 to 100,"COc1cc(-c2cncc(-c3cc(NC(=O)CC4CC4)cs3)n2)ccc1C(=O)N1CCN(C)CC1 [Example B38, 2-cyclopropyl-N-(5-(6-(3-methoxy-4-(4-methylpiperazine-1-carbonyl)phenyl)pyrazin-2-yl)thiophen-3-yl)acetamide]"
11,11 to 100,"COc1cc(-c2cncc(-c3cc(NC(=O)CC4CCCC4)cs3)n2)ccc1C(=O)N1CCN(C)CC1 [Example B40, 2-cyclopentyl-N-(5-(6-(3-methoxy-4-(4-methylpiperazine-1-carbonyl)phenyl)pyrazin-2-yl)thiophen-3-yl)acetamide]"
12,101 to 1000,"CCCCC(=O)Nc1csc(-c2cncc(-c3ccc(C(=O)Nc4cn(C)nc4OC)c(OC)c3)n2)c1 [Example B41, 2-methoxy-N-(3-methoxy-1-methyl-1H-pyrazol-4-yl)-4-(6-(4-pentanamidothiophen-2-yl)pyrazin-2-yl)benzamide]"
13,101 to 1000,"COc1cc(-c2cncc(-c3cc(NC(=O)CC4CCC4)cs3)n2)ccc1C(=O)Nc1cnn(C)c1OC [Example B43, 4-(6-(4-(2-cyclobutylacetamido)thiophen-2-yl)pyrazin-2-yl)-2-methoxy-N-(5-methoxy-1-methyl-1H-pyrazol-4-yl)benzamide]"
14,101 to 1000,"COc1cc(-c2cncc(-c3cc(NC(=O)CC4CCCC4)cs3)n2)ccc1C(=O)Nc1cnn(C)c1OC [Example B44, 4-(6-(4-(2-cyclopentylacetamido)thiophen-2-yl)pyrazin-2-yl)-2-methoxy-N-(5-methoxy-1-methyl-1H-pyrazol-4-yl)benzamide]"
15,11 to 100,"COc1cc(-c2cncc(-c3cc(NC(=O)CC45CC(C4)C5)cs3)n2)ccc1C(=O)N1CCOCC1 [Example B45, 2-(bicyclo[1.1.1]pentan-1-yl)-N-(5-(6-(3-methoxy-4-(morpholine-4-carbonyl)phenyl)pyrazin-2-yl)thiophen-3-yl)acetamide]"
16,11 to 100,"CCCCC(=O)Nc1csc(-c2cncc(-c3ccc(C(=O)N4CCN(C5CCN(C)CC5)CC4)c(OC)c3)n2)c1 [Example B47, N-(5-(6-(3-methoxy-4-(4-(1-methylpiperidin-4-yl)piperazine-1-carbonyl)phenyl)pyrazin-2-yl)thiophen-3-yl)pentanamide]"
17,11 to 100,"COc1cc(-c2cncc(-c3cc(NC(=O)CC4CCC4)cs3)n2)ccc1C(=O)N1CCN(C2CCN(C)CC2)CC1 [Example B51, 2-cyclobutyl-N-(5-(6-(3-methoxy-4-(4-(1-methylpiperidin-4-yl)piperazine-1-carbonyl)phenyl)pyrazin-2-yl)thiophen-3-yl)acetamide]"
